Converted amounts (≈) assume the structure as drawn.
Key:
C. neoformans [1] = conditions: cited from earlier work; for MIC50 against C. neoformans, alone / concentration in the combination of ibuprofen and ITR: ref 17 (Rocha et al.); for concentration in the combination of ibuprofen and ITR: ibuprofen combined with ITR
Excerpt: For example, […] et al. reported the combined activity against C. neoformans of the aminoglycoside K20 with ITR. […] In contrast, when combined, the concentration to reach the same activity decreases to 187 and 1 for K20 and ITR [16]. In another study, Rocha et al. evaluated the synergistic effect between ibuprofen and ITR against C. neoformans. […] However, the co ...

[2] = tested on: C. neoformans (ATCC 32045); experiment: Combined antifungal activity (growth inhibition, absorbance 600 nm); type: cell-based, Cryptococcus neoformans; conditions: YPD, 10^6 cells mL^−1, 24 h, 30 °C, A600, mean ± SD
Procedure: The combined antifungal activity was evaluated as described in [11]. The combinations with SAMPs and itraconazole were constituted of peptides MIC50 [7] + itraconazole (ITR) 500 (1×) µg mL^−1, peptides [5×D] + ITR [1×D], peptides [10×D] + ITR [5×D], and peptides [10×D] + ITR [10×D]. The cells were grown on YPD agar for […], and cryptococcal cells were then resuspended in YPD medium and standardized at 10^6 cells mL^−1. The assay was performed in 96-well plates and incubated for 24 h at 30 °C. Then, the absorbance was measured at 600 nm using an automated microplate reader (Epoch, Biotek, Santa Clara, CA, USA). The best combinations were used to study the mechanisms of action. […] Experiments were performed in three biological replications, and each biological replication was performed with three technical replicates. The statistical analyses were performed using GraphPad Prism (version 5.01) for Microsoft Windows. All data obtained in the assays were compared using standard deviation and the one-way analysis of variance (ANOVA), followed by the Tukey test (p < 0.05).

C. neoformans cells [3] = experiment: Overproduction of reactive oxygen species (DCFH-DA, fluorescence microscopy, ImageJ counting); type: cell-based, Cryptococcus neoformans
Procedure: The ROS overproduction was evaluated according to the method Dias et al.. After incubation for 24 h, as described above, the samples were washed three times with sterile 0.15 M NaCl and centrifuged (5000× g 5 min at 4 °C) to remove the YPD medium. The analysis was conducted, as described, by PI assay. Next, 9 μL of 2',7' […] diacetate-DCFH-DA (Sigma, St. Louis, MI, USA)-was added and incubated in the dark for 30 min at room temperature (22 °C ± 2). Next, they were washed and centrifuged twice under the same conditions as those mentioned above. Then, the cryptococcal cells were observed under a fluorescence microscope (Olympus System BX 41, Tokyo, Japan), with an excitation wavelength of 488 nm and an emission wavelength of 525 nm. The fluorescent C. neoformans cells were counted using ImageJ software using the Cell Counter plugin, according to the methodology described by Aguiar et al.. The cells were counted in the bright and fluorescent field of the same picture. Cells presenting fluorescence were called positive cells, and those without fluorescence were called negative cells. […] The cells were calculated using the equation: number of positive cells × 100/number of cells in the bright field. The number of negative cells was calculated following the equation: number of cells in the bright field-number of positive cells. Three different images were used to count the cells.

C. neoformans [4] = tested on: C. neoformans; parameters: method as in earlier work; conditions: previously defined; ref 7 (Aguiar et al.); cited from earlier work
C. neoformans cells [5] = experiment: Cell membrane integrity / membrane pore formation (propidium iodide uptake, fluorescence microscopy, ImageJ counting); type: cell-based, Cryptococcus neoformans
Procedure: The cell membrane integrity of C. neoformans was evaluated as described in [7]. After incubation for 24 h, as described above, the samples were washed three times with sterile 0.15 M NaCl and centrifuged (5000× g 5 min at 4 °C) to remove the YPD medium. Then, the cells were incubated with propidium iodide (PI) for 30 min in the dark at room temperature (22 °C ± 2). Next, they were washed and centrifuged twice, under the same conditions as previously mentioned. […] The fluorescent C. neoformans cells were counted using ImageJ software using the Cell Counter plugin, according to the methodology described by Aguiar et al. […] The cells were counted in the bright and fluorescent field of the same picture. Cells presenting fluorescence were called positive cells, and those without fluorescence were called negative cells. […] The cells were calculated using the equation: number of positive cells × 100/number of cells in the bright field. The number of negative cells was calculated following the equation: number of cells in the bright field—number of positive cells. Three different images were used to count the cells.

## CC(C)Cc1ccc(C(C)C(=O)O)cc1 (centres unmarked) [ibuprofen]
C. neoformans [1]; agent alone
  MIC50 against C. neoformans, alone: 512 µg/mL
C. neoformans [1]
  concentration in the combination of ibuprofen and ITR: 16 µg/mL

## CCC(C)n1ncn(-c2ccc(N3CCN(c4ccc(OCC5COC(Cn6cncn6)(c6ccc(Cl)cc6Cl)O5)cc4)CC3)cc2)c1=O (centres unmarked) [ITR, itraconazole]
[2]; single agent at 1× (ITR 500; Mo-CBP3-PepII 25; RcAlb-PepII, RcAlb-PepIII, PepGAT, PepKAA 0.04 µg mL^−1)
  % of Inhibition of C. neoformans Growth: 45.3 ± 0.021%
[2]; single agent at 5×D (ITR 100; Mo-CBP3-PepII 5; other peptides 0.008 µg mL^−1)
  % of Inhibition of C. neoformans Growth: 12.2 ± 0.003%
[2]; single agent at 10×D (ITR 50; Mo-CBP3-PepII 2.5; other peptides 0.004 µg mL^−1)
  % of Inhibition of C. neoformans Growth: 0%
C. neoformans [1]; K20 combined with ITR, unit not given, ref 16 (Shrestha et al.)
  concentration to reach the same activity when combined: 1
C. neoformans [1]; agent alone, ref 16 (Shrestha et al.)
  concentration presenting activity against C. neoformans, alone: 780 µg/mL
C. neoformans [1]; agent alone
  MIC50 against C. neoformans, alone: 500 µg/mL
C. neoformans [1]
  concentration in the combination of ibuprofen and ITR: 125 µg/mL
C. neoformans cells [3]; ITR alone (dilution not stated), ImageJ count of three images
  DCFH-DA-fluorescent cells: 0%
C. neoformans cells [3]; ITR alone, fluorescence images, Figure 2
  ROS accumulation (DCFH-DA fluorescence), qualitative: no ROS accumulation
C. neoformans [4]
  MIC50 against C. neoformans: 500 µg/mL (≈ 709 µM)
C. neoformans cells [5]; ITR alone (dilution not given; ITR 1× in Figure 1 text), ImageJ count of three images
  positive PI-fluorescent cells: 0%
C. neoformans cells [5]; single agent at 1×, fluorescence images, Figure 1
  membrane pore formation (PI red fluorescence), qualitative: no red fluorescence
